In one experiment the test system is p-MOB1. In words: Western blotting. The experiment is classed as cell-based. The settings on record: MM.1S cells, 1 μM and 10 μM, 6 hours. From the text:
MM.1S, KMS20 and H929 cells are counted, diluted and plated. Cells are then […] with DMSO or different concentration of a compound of the present application for 6 hrs, 24 hrs or 48 hrs. MM cells are then collected and centrifuged at RT and the pellets are re-suspended in lysis buffer. Cell lysates are subjected to sodium dodecyl sulfate-polyacrylamide gel electrophoresis SDS-PAGE, transferred to nitrocellulose membranes, and immunoblotted with different antibodies.
MM.1S, KMS20 and H929 cells were counted, diluted and plated in six-well plates to a final concentration of 500,000 cells/well. Cells were then […] with DMSO or different concentration of a compound of the present application for 6 hrs, 24 hrs or 48 hrs. MM cells were then collected and centrifuged for 5 min, 1300 rpm at RT. The pellets were re-suspended in lysis buffer Laemli 1× (Laemli 5×: SDS 10%, DTT 500 mM, Tris-HCl pH6.8 0.4M, BromoFenol Blue, Glycerol 50%). Cell lysates were subjected to sodium dodecyl sulfate-polyacrylamide gel electrophoresis SDS-PAGE, transferred to nitrocellulose membranes, and immunoblotted with different antibodies: YAP1 (#4912), p-YAP1 (S127) (#13008), LATS1 (#9153), p-LATS1 (Thr1079) (#8654), MOB1 (#3863), p-MOB1 (Thr12) (#8843), p-MST1/p-MST2 (Thr183/Thr180) (#3681), p21 (#2947), PARP (#9532), ERK, STAT, and GAPDH (#5174) from Cell Signaling, Beverly, Mass., United States; STK4 (ab57836) (from Abcam, Cambridge, Mass., United States); PUMA (sc-28226), BAX (sc-20067), from Santa Cruz, Dallas, Tex., United States; β-actin from Sigma-Aldrich (St. Louis, Mo., United States). All antibodies were diluted 1:500, except for β-actin antibody (1:50,000 dilution). In FIG. 8, H929 cells were treated with Compound I-9 or DMSO at 1 μM concentration for 24 hours. Lysates were then obtained and immunoblot was performed using antibodies against PARP, YAP1, PUMA, BAX. p21, and GAPDH.
In FIGS. 26A-26J, MM.1S cells were treated with Compound I-6, Compound I-31, Compound I-30, Compound I-22, Compound I-27, Compound I-1, Compound I-23, Compound I-13, Compound I-28, Compound I-9, or DMSO at 1 μM and 10 μM concentrations for 6 hours. Lysates were then obtained and immunoblot was performed using antibodies against MOB1 and p-MOB1. As shown from FIGS. 26A-26J, Compound I-22, Compound I-27, Compound I-1, Compound I-23, Compound I-13, Compound I-28, and Compound I-9 reduced PMOB1 levels at different concentrations.
For orientation: A western blot detects proteins with antibodies after separation by electrophoresis.

For a further experiment, the target named is CK1g1 (Homo sapiens (Human), UniProt Q9HCP0). The experiment in a line: KiNativ assay. Type of experiment: binding. The settings on record: H929 live cell. Put shortly:
(§1)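 Treatment: 10 μM compound, H929 live cells, duplicates. Detection: KiNativ with mass spectrometry. Output: IC50.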

The target in a further experiment is RIPK3 (Homo sapiens (Human), UniProt Q9Y572). In words: KiNativ assay. The settings on record: H929 live cell. The experiment is classed as binding. Put shortly:
(§2)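 H929 live-cell screen at 10 μM, run in duplicate. Kinase occupancy was assessed via the KiNativ platform, with IC50 determined by mass spectrometry.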

The test system of a further experiment is AKT2, AKT3. In words: KiNativ assay. The experiment is classed as binding. Conditions: H929 live cell. Put shortly:
as §2

In the next experiment the test system is ROCK1, ROCK2. In words: KiNativ assay. Type of experiment: binding. Conditions: H929 live cell. The method in brief:
as §2

The next experiment has as its target PDK1 (Homo sapiens (Human), UniProt O15530). In words: KiNativ assay. Type of experiment: binding. Conditions: H929 live cell. Put shortly: as §2
Another experiment deals with KHS2 (Homo sapiens (Human), UniProt Q8IVH8). In words: KiNativ assay. Type of experiment: binding. Conditions: H929 live cell. The method in brief: as §1
Chain of KHS2 (Q8IVH8 whole entry): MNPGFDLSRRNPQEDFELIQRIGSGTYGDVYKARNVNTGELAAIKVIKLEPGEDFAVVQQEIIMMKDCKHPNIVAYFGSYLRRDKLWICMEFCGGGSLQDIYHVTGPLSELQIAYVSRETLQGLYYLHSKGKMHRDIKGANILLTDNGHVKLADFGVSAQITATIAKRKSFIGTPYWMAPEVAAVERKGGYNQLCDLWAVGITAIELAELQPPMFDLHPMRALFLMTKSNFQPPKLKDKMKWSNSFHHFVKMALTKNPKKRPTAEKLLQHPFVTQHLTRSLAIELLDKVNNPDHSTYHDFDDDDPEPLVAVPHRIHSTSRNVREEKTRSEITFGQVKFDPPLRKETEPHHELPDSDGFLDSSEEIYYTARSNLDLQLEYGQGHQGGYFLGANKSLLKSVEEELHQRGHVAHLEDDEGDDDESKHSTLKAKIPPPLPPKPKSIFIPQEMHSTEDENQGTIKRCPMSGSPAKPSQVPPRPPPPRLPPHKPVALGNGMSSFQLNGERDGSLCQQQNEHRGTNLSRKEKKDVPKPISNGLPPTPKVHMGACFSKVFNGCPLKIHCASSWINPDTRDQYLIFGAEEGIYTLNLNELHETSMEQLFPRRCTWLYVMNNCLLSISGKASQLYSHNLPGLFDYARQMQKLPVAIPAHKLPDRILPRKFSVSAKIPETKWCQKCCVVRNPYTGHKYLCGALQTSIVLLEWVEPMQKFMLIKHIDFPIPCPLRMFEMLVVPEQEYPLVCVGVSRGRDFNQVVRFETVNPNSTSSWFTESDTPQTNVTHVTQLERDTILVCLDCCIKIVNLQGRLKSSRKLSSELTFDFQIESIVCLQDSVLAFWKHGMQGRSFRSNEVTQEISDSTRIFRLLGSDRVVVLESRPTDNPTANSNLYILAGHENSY

Read-outs that look alike come from different tables or passages of the source.

Chain of RIPK3 (Q9Y572 whole entry): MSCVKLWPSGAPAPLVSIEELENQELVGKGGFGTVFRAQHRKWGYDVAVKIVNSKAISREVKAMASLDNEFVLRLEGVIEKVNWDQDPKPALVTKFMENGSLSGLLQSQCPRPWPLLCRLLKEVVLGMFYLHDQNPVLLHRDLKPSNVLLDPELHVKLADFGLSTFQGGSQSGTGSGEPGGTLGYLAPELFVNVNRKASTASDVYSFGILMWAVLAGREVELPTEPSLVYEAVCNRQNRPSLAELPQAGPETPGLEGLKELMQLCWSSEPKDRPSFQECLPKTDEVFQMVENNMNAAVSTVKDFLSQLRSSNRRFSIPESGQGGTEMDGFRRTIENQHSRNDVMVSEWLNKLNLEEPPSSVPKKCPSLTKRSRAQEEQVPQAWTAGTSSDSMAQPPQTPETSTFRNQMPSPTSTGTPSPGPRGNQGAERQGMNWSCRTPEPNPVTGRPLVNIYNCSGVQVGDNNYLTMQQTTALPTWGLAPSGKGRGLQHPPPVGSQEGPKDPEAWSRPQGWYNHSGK
Chain of PDK1 (O15530 whole entry): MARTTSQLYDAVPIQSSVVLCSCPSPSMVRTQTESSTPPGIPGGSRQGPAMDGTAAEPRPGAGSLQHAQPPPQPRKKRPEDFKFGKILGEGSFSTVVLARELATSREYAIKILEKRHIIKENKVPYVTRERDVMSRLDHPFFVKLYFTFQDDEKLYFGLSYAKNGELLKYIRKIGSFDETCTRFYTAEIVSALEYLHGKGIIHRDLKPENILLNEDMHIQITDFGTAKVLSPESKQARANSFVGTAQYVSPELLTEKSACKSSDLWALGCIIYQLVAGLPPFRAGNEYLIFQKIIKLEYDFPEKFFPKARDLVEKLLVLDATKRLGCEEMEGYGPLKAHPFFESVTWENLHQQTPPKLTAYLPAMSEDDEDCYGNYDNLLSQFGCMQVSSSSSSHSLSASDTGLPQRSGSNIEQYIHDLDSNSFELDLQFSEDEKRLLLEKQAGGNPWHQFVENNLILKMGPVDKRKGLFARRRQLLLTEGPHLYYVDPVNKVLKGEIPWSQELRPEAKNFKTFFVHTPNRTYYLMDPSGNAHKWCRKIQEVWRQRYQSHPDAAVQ
Chain of CK1g1 (Q9HCP0 whole entry): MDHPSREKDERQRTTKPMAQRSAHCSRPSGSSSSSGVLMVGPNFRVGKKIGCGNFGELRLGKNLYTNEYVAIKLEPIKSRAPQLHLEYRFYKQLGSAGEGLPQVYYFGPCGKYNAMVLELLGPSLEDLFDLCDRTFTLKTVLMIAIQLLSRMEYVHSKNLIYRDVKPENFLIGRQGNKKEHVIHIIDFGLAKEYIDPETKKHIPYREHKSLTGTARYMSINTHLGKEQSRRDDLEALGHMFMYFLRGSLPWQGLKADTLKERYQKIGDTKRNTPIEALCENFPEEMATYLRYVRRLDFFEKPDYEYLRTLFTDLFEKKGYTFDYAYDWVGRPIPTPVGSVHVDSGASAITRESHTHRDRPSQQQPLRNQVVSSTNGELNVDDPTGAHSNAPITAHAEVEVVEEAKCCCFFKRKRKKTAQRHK

In the case of `Nc1ncc(-c2cccc3ncsc23)cc1-c1ccc2c(c1)CCNC2=O` [Compound I-13, 6-(2-amino-5-(benzo[d]thiazol-7-yl)pyridin-3-yl)-3,4-dihydroisoquinolin-1(2H)-one], in the experiment on p-MOB1, the PMOB1 levels result is recorded as “reduced”. For the same molecule, the inhibition at 10 µM at CK1g1 (read-out: % inhibition (range)) was 75 to 90%; at CK1g1 (read-out: inhibition (10 μM)), over 85%; on RIPK3 (read-out: % inhibition (range)) it was 0%; on RIPK3 (read-out: inhibition (10 μM)), -25.9%; at PDK1 (read-out: % inhibition (range)), 0%; on PDK1 (read-out: inhibition (10 μM)), 17.5%. Moreover, the inhibition at 10 µM at KHS2 (read-out: % inhibition (range)) amounted to 0%; on KHS2 (read-out: inhibition (10 μM)), 1.7%. Besides, the “% inhibition (range)” value with AKT2, AKT3 (10 μM) was determined as 0.0%; in the experiment with ROCK1, ROCK2 (10 μM) it was 0.0%. The “inhibition (10 μM)” value in the experiment on AKT2, AKT3 is 19.0%; with ROCK1, ROCK2, −11.4%.

As a reminder, the inhibition is the change of the read-out against control, counted positive when it falls.

The values are drawn from patent publication US10710978B2, “STK4 inhibitors for treatment of hematologic malignancies” (Dana-Farber Cancer Institute, Inc., priority 2015, dated 2020).
